Data from US20120171123A1, “USES AND COMPOSITIONS FOR TREATMENT OF RHEUMATOID ARTHRITIS” (priority 2006, published 2012).

Key:
[1] = system: RA patients treated with adalimumab in clinical trials in North America and Europe
Experimental: The rate of TB was calculated for the period before screening was initiated (primarily Phase I trials) and the period after screening was implemented. The screening program consisted of a clinical interview, a tuberculin skin test, and, in most patients, a chest X-ray (CXR). The definition of PPD-positive depended on local country-specific guidelines. For those people who were PPD-positive, or for whom the investigator felt the risk of TB reactivation was high, INH was given for prophylaxis.
The methodology differed among protocols. For instance, in Europe and Australia, it was initially used CXR only, and in later studies, CXR and purified protein derivative skin test (PPD) were both used. By contrast, in US and Canada, CXR and PPD were both used.

[2] = system: MTX-naïve adult patients with early RA (<3 years); assay: Study J: escalation of injectable medicine from eow to weekly dosing; type: in vivo, human
Experimental: Study J was a 2-year, double-blind, active comparator-controlled, Phase III study. […] In patients receiving ADA+MTX or MTX monotherapy, the 7.5 mg MTX weekly dosage increased to 20 mg over 8 weeks, as tolerated and as needed. Monotherapy patients received either placebo pills (adalimumab arm) or placebo injections (MTX arm). Efficacy outcomes measured included ACR response, DAS28 remission, major clinical response, and radiographic change from baseline.
MTX optimization was required before starting weekly injections (to 20 mg weekly, maximum). Once initiated, weekly dosing of injectable medicine was to be maintained until end of study. Criteria for identification of dosage escalators were a sequence of 4 consecutive injections for which the interval for every two consecutive injections was ≦10 days, and/or that the date of escalation, defined as the second of the 4 injections, had to be on or after Week 16 in Year 1. Three dosage escalator categories were defined, based on best ACR response rate achieved any time prior to escalation: Group A=ACR non-responders (never achieved ACR20 prior to dosage escalation), Group B=Partial responders (achieved ACR20 or ACR50 at least once prior to escalation, but never ACR70), and Group C=ACR70 responders (achieved ACR70 at least once prior to escalation). Data are from the intention-to-treat (ITT) population, with missing data analyzed by non-responder imputation (NRI) for clinical measures and by linear imputation for total Sharp scores (TSS).

[3] = system: patients with long-standing RA who had inadequate responses to MTX; assay: Study 1 (adalimumab + MTX vs placebo + MTX, 12-month RCT plus OLE): radiographic progression (TSS, JE, JSN); type: in vivo, human
Experimental: The study design included a 12 month, double blind, randomized, placebo-controlled trial.
Patients were grouped into three cohorts based on baseline CRP concentrations: low (<1 mg/dL); intermediate (1-4 mg/dL); and high (>4 mg/dL). Analyses were further conducted in two categories of patients according to their change in CRP concentrations at Week 12: those with a ≧20% decrease in CRP from baseline; or those with a <20% decrease in CRP from baseline. The following efficacy and radiographic measures were analyzed at Week 52 in the three baseline CRP categories and in the two Week 12 change in CRP categories: DAS28, ACR 20/50/70, Health assessment questionnaire (HAQ), and Total Sharp score (TSS).
Two readers assessed X-rays performed at baseline (start of RCT), 1 year (end of RCT), and 3 years (post 2 years OLE). Changes from baseline in Total Sharp Score (TSS), Joint Erosions (JE), and Joint Space Narrowing (JSN) were calculated. ACR 20, 50, and 70 response rates, as well as TJC and SJC, were also measured.

patients with RA [4] = assay: Study I: HUI3 health utility; type: in vivo, human; conditions: for mean HUI3 change from baseline: week 24 (6 months)
Experimental: Inclusion criteria for this study included: all patients had severe active disease; and all patients had failed prior DMARD(s).
The Health Utilities Index Mark 3 (HUI3) was assessed at three time points. HUI 3 consists of 8 attributes: vision, hearing, speech, ambulation, dexterity, emotion, cognition, and pain. HUI3 score changes of ≧0.03 are considered clinically important. […] As can also be seen in this figure, the Study 2 study population started with baseline values reflecting a patient population with a more severe disease activity than in Study I, as documented by TJC, SJC, HAQ, CRP, and number of previous DMARDs.

[5] = system: patients with moderate to severe RA; assay: Study 1: Health Utilities Index Mark 3 (HUI3); type: in vivo, human; conditions: week 52
Experimental: The HUI3 was assessed at baseline, and at several time points during the study. Health Utility Index 3 (scale=0-1) measures preference of a health state, with “1” denoting perfect health and “0” denoting death. HUI3 changes of ≧0.03 are considered clinically important. The HUI3 classification system consists of 8 attributes and 5 or 6 levels on each attribute, ranging from full function to severe impairment.

patients with RA [6] = assay: Study I (adalimumab 40 mg eow + MTX vs placebo + MTX, 24 weeks): FACIT-F fatigue; type: in vivo, human; conditions: for mean FACIT-F change from baseline: week 24 (6 months)
Experimental: FACIT-F was administered at baseline, at 1 or 2 time points during the study, and at the end of the study. The questionnaire asked each patient the following “Below is a list of statements that other people with your illness have said are important. By circling one (1) number per line, please indicate how true each statement has been for you during the past 7 days.” The questions in the questionnaire used to determine the FACIT score included the following, where each patient indicated the appropriate number (0-4): I feel fatigued; I feel weak all over; I feel listless (“washed out”); I feel tired; I have trouble starting things because I am tired; I have trouble finishing things because I am tired; I have energy; I am able to do my usual activities; I need to sleep during the day; I am too tired to eat; I need help doing my usual activities; I am frustrated by being too tired to do the things I want to do; I have to limit my social activity because I am tired. FACIT-F scores range from 0-52, with higher scores representing less fatigue. FACIT-F changes of ≧4 are considered clinically meaningful.
For Study I, the mean change in baseline for the FACIT-F score at 6 months was 8.1 for ada 40 mg eow+mtx and 2.5 for placebo+mtx (p=0.01). The minimum clinical important difference was determined to be ≧4.0.

With `NNC(=O)c1ccncc1` [INH, isoniazid, reference compound] the “patients who developed TB after INH prophylaxis” value ([1]; 835 patients who received INH) was 0.5% and the “subjects who developed TB after INH prophylaxis” value ([1]; Study A, 712 high-risk subjects given INH before adalimumab) was 0.6%.
`CN(Cc1cnc2nc(N)nc(N)c2n1)c1ccc(C(=O)N[C@@H](CCC(=O)O)C(=O)O)cc1` [MTX Monotherapy] was tested, and the “Patients who became ACR20 responders after increase to weekly dosing” value ([2]; 1 year) was 4%, the “Patients who became ACR50 responders after increase to weekly dosing” value ([2]; 1 year) was 1% and the “Patients who reached DAS28 < 2.6 (remission) after increase to weekly dosing” value ([2]; 1 year) was 0%. For the same compound, the “Patients who became ACR20 responders after increase to weekly dosing” value ([2]; 2 years) was 4%, the “Patients who became ACR50 responders after increase to weekly dosing” value ([2]; 2 years) was 2% and the “Patients who reached DAS28 < 2.6 (remission) after increase to weekly dosing” value ([2]; 2 years) was 1%. The “Patients with Major Clinical Response after increase to weekly dosing” value ([2]; ACR70 for ≧6 consecutive months over a 2-year period) was 1%.
`CN(Cc1cnc2nc(N)nc(N)c2n1)c1ccc(C(=O)N[C@@H](CCC(=O)O)C(=O)O)cc1` [placebo+mtx, methotrexate] was tested, and the “mean change from baseline in Total Sharp Score” value ([3]; 12 months (blinded)) was 2.8, the “mean change from baseline in joint erosion score” value ([3]; 12 months (blinded)) was 1.7 and the “mean change from baseline in joint space narrowing score” value ([3]; 12 months (blinded)) was 1.2. For the same compound, the “mean change from baseline in joint erosion score” value ([3]; 36 months (open-label)) was 1.7, the “mean change from baseline in joint space narrowing score” value ([3]; 36 months (open-label)) was 1.3 and the “mean change from baseline in Total Sharp Score” value ([3]; 36 months (open-label; all patients on adalimumab 40 mg eow + mtx after month 12)) was 3.0. The “relative HUI3 change from baseline” value (patients with RA [4]; week 24) was “+10%”, the “mean HUI3 change from baseline” value (patients with RA [4]) was 0.04 and the “mean HUI3 change from baseline” value (patients with RA [4]; listed as Placebo + mtx) was 0.04. The “mean HUI3 change from baseline” value (patients with RA [4]; listed as placebo + MTX) was “+0.04”, the “mean HUI3 improvement from baseline” value [5] was “+0.07” and the “relative HUI3 improvement from baseline” value [5] was “+18%”. The “relative FACIT-F change from baseline” value (patients with RA [6]; week 24) was “+9%”, the “mean FACIT-F change from baseline” value (patients with RA [6]) was 2.5 and the “mean FACIT-F change from baseline” value (patients with RA [6]; listed as placebo + MTX) was “+2.5”.
